# Like-named read-outs stand apart in the source and are kept apart here.
# Key:
# E. coli [1] = assay: Phase IIa baseline uropathogen susceptibility testing (CLSI broth microdilution); type: cell-based, Escherichia coli; conditions: Escherichia coli, read-out: GEP MIC
# Method: This phase IIa single center study evaluated the safety, tolerability, pharmacokinetics, and efficacy of oral gepotidacin 1500 mg BID for 5 days in female subjects with acute cystitis. Clean catch mid-stream urine specimens were obtained for quantitative culture by standard methods. Urine samples were taken from all participants pre-treatment (baseline) and at all post-baseline visits. All urine samples were sent to a central laboratory (PPD Global Clinical Laboratories, Highland Heights, Ky., USA) for Gram stain, quantitative culture, pathogen identification and susceptibility testing. See FIG. 1 for participant disposition and study outline.
# Susceptibility testing by CLSI broth microdilution and gradient diffusion (fosfomycin only) was conducted (CLSI, 2015, Methods for dilution antimicrobial susceptibility tests for bacteria that grow aerobically; approved standard-tenth edition; and CLSI, 2018. Performance Standards for Antimicrobial Susceptibility Testing; Twenty-seventh Informational Supplement M100-S28). Inclusion in the microbiological intent-to-treat population (micro-ITT), required growth of a qualifying baseline uropathogen (≥10^5 CFU/mL). See FIG. 2 for the baseline algorithm.
# Fusobacterium spp. = assay: MIC by CLSI agar dilution, Example 6 Method 1; type: cell-based
# Method: (§1) Antimicrobial activity was determined by agar dilution using the Clinical and Laboratory Standards Institute (CLSI) recommended procedure.
# (§2) The compounds were tested in serial two-fold dilutions and the minimum inhibitory concentration (MIC) was determined as the lowest concentration of the compound that inhibited visible growth. Gepotidacin was tested against 333 gram-negative anaerobic and 203 gram-positive anaerobic isolates collected from clinical samples in North America and Europe from 2000 to 2017; the majority collected from 2013 to 2016.
# (§3) Ceftriaxone, clindamycin, imipenem, metronidazole, moxifloxacin and piperacillin/tazobactam were included as comparators.
# (§4) Additional analysis was performed from the results of the study described in Method 1 above, to determine the in vitro activity of gepotidacin against gram-negative and gram-positive anaerobic organisms with resistance to ceftriaxone, clindamycin, imipenem, metronidazole, moxifloxacin and piperacillin/tazobactam.
# [2] = test system: gram-negative and gram-positive anaerobes tested; assay: MIC by CLSI agar dilution, Example 6 Method 1; type: cell-based
# Method: as §1, §2, §3, §4
# Lactobacillus spp. = assay: MIC by CLSI agar dilution, Example 6 Method 1; type: cell-based
# Method: as §1, §2, §3, §4
# Veillonella spp. = assay: MIC by CLSI agar dilution, Example 6 Method 1; type: cell-based
# Method: as §1, §2, §3, §4
# Eggerthella lenta = assay: MIC by CLSI agar dilution, Example 6 Method 1; type: cell-based
# Method: as §1, §2, §3, §4
# [3] = test system: Peptostreptococcus anaerobius; assay: MIC by CLSI agar dilution, Example 6 Method 1; type: cell-based; conditions: for Gepotidacin MIC range: 3 isolates
# Method: as §1, §2, §3, §4
# Eubacterium spp. = assay: MIC by CLSI agar dilution, Example 6 Method 1; type: cell-based
# Method: as §1, §2, §3, §4
# E. coli [4] = assay: MIC by CLSI agar dilution, Example 1 Method 2; type: cell-based, Escherichia coli
# Method: Antimicrobial activity was determined in a second study by […] using the CLSI recommended procedure in serial two-fold dilutions and the minimum inhibitory concentration (MIC) was determined as the lowest concentration of the compound that inhibited visible growth.
# MICs were determined according to CLSI agar dilution guidelines.
# [5] = test system: Staphylococcus saprophyticus; assay: MIC by CLSI broth microdilution in CAMHB and urine, Example 1 Method 3; type: cell-based; conditions: for Mean MIC: n = 6; for MIC: Staphylococcus saprophyticus
# Method: Antimicrobial activity was determined by broth microdilution using the CLSI recommended procedure.
# The compounds were tested in serial two-fold dilutions and the minimum inhibitory concentration (MIC) was determined as the lowest concentration of the compound that inhibited visible growth.
# In particular, gepotidacin was tested against 6 strains of Staphylococcus saprophyticus from the collection of isolates at Laboratory Specialists, Inc., Westlake, Ohio.
# Levofloxacin was included as the comparator in the study to determine the effect of urine on the in vitro activity of gepotidacin against Staphylococcus saprophyticus. MICs were determined by broth microdilution according CLSI methods.
# The data shown in the table below are results from an in vitro study conducted with the same S. saprophyticus isolates described above, to determine the effect of urine on the in vitro activity of gepotidacin and levofloxacin against S. saprophyticus. Study strains were tested for MICs (minimum inhibitory concentrations) according to reference CLSI broth microdilution method using cation-adjusted Mueller Hinton Broth (CAMHB) and with the addition of 25%, 50% and 100% urine (not pH adjusted, pH 6.42) and 100% urine (pH adjusted, 7.31 and 8.07).
smiles,measurement,setting,value
"O=c1ccc2ncc(=O)n3c2n1C[C@H]3CN1CCC(NCc2cc3c(cn2)OCCC3)CC1 [gepotidacin, (2R)-2-({4-[(3,4-dihydro-2H-pyrano[2,3-c]pyridin-6-ylmethyl)amino]-1-piperidinyl}methyl)-1,2-dihydro-3H,8H-2a,5,8a-triazaacenaphthylene-3,8-dione]",MIC,E. coli [1]; Participant 2,2 µg/mL
same,MIC,E. coli [1]; Participant 3,0.5 µg/mL
same,MIC,E. coli [1]; Participant 4,2 µg/mL
same,MIC,"E. coli [1]; Participant 5, MDR and fluoroquinolone-resistant",1 µg/mL
same,MIC,"E. coli [1]; Participant 6, MDR",2 µg/mL
same,MIC90,"Fusobacterium spp.; Fusobacterium, 25 isolates, read-out: Gepotidacin MIC90",2 µg/mL
same,Gepotidacin MIC range,"Fusobacterium spp.; clindamycin R, 2 isolates",0.25 to 2 µg/mL
same,MIC,[2],≤ 2 µg/mL
same,MIC90,"[2]; 333 gram-negative and 203 gram-positive anaerobic isolates, per pathogen group",≤ 4 µg/mL
same,MIC,"[2]; Bacteroides caccae, read-out: MICs",≤ 4 µg/mL
same,MIC90,"Lactobacillus spp.; Lactobacillus, 91 isolates, read-out: Gepotidacin MIC90",1 µg/mL
same,Gepotidacin MIC range,"Lactobacillus spp.; clindamycin R, 3 isolates",0.03 to 1 µg/mL
same,Gepotidacin MIC range,"Lactobacillus spp.; imipenem R, 27 isolates",0.03 to 1 µg/mL
same,MIC90,"Veillonella spp.; Veillonella, 25 isolates, read-out: Gepotidacin MIC90",0.12 µg/mL
same,Gepotidacin MIC range,"Veillonella spp.; clindamycin R, 5 isolates",0.125 µg/mL
same,Gepotidacin MIC range,"Veillonella spp.; moxifloxacin R, 3 isolates",≤0.015 to 0.03 µg/mL
same,MIC90,"Eggerthella lenta; Eggerthella lenta, 21 isolates, read-out: Gepotidacin MIC90",4 µg/mL
same,Gepotidacin MIC range,"Eggerthella lenta; ceftriaxone R, 19 isolates",0.06 to 32 µg/mL
same,Gepotidacin MIC range,"Eggerthella lenta; clindamycin R, 3 isolates",1 to 4 µg/mL
same,Gepotidacin MIC range,"Eggerthella lenta; moxifloxacin R, 6 isolates",1 to 32 µg/mL
same,MIC90,"[3]; Peptostreptococcus anaerobius, 25 isolates, read-out: Gepotidacin MIC90",0.03 µg/mL
same,Gepotidacin MIC range,[3]; clindamycin R,≤0.015 to 0.03 µg/mL
same,Gepotidacin MIC range,[3]; moxifloxacin R,0.03 µg/mL
same,MIC90,"Eubacterium spp.; Eubacterium, 31 isolates, read-out: Gepotidacin MIC90",2 µg/mL
same,Gepotidacin MIC range,"Eubacterium spp.; moxifloxacin R, 3 isolates",0.25 to 2 µg/mL
same,MICs ranged,E. coli [4]; 254 isolates,≤0.06 to 64 mg/L
same,% of the tested isolates inhibited at ≤8 mg/L,"E. coli [4]; 254 isolates, enriched for drug resistance",96.1%
same,MIC50,"E. coli [4]; Escherichia coli, n = 254",2 µg/mL
same,MIC90,"E. coli [4]; Escherichia coli, n = 254",8 µg/mL
same,% of isolates inhibited at ≤8 mg/L,E. coli [4]; KPC producing E. coli,94.6%
same,% of isolates inhibited at ≤8 mg/L,E. coli [4]; NDM producing E. coli,100%
same,% of isolates inhibited at ≤8 mg/L,E. coli [4]; OXA-48-like producing E. coli,92.1%
same,Effect of levofloxacin non-susceptibility or QRDR substitutions in GyrA and ParC on activity,E. coli [4]; QRDR data for 188 of 254 isolates,unaffected
same,Number of Isolates at Gepotidacin MIC 0.5 mg/L,E. coli [4]; n = 254,22
same,Number of Isolates at Gepotidacin MIC 1 mg/L,E. coli [4]; n = 254,56
same,Number of Isolates at Gepotidacin MIC 2 mg/L,E. coli [4]; n = 254,92
same,Number of Isolates at Gepotidacin MIC 4 mg/L,E. coli [4]; n = 254,37
same,Number of Isolates at Gepotidacin MIC 8 mg/L,E. coli [4]; n = 254,33
same,Number of Isolates at Gepotidacin MIC ≤0.25 mg/L,E. coli [4]; n = 254,4
same,Number of Isolates at Gepotidacin MIC ≥16 mg/L,E. coli [4]; n = 254,10
same,MIC range,[5]; 3 isolates of methicillin-resistant S. saprophyticus,0.06 to 0.5 µg/mL
same,MIC range,[5]; 3 isolates of methicillin-susceptible S. saprophyticus,0.03 to 0.5 µg/mL
same,Mean Dilution Difference,[5]; 25% Urine (pH 7.09) vs CAMHB,0.00
same,Mean difference,[5]; 25% Urine (pH 7.09) vs CAMHB,0.00
same,N(%) ± 1 dilution,[5]; 25% Urine (pH 7.09) vs CAMHB,6 (100%)
same,N(%) ± 2 dilution,[5]; 25% Urine (pH 7.09) vs CAMHB,6 (100%)
same,Mean MIC,[5]; 25% Urine (pH 7.09),0.11 µg/mL
same,Mean Dilution Difference,[5]; 50% Urine (6.99) vs CAMHB,0.00
same,Mean difference,[5]; 50% Urine (6.99) vs CAMHB,0.00
same,N(%) ± 1 dilution,[5]; 50% Urine (6.99) vs CAMHB,6 (100%)
same,N(%) ± 2 dilution,[5]; 50% Urine (6.99) vs CAMHB,6 (100%)
same,Mean MIC,[5]; 50% Urine (6.99),0.11 µg/mL
same,Mean Dilution Difference,[5]; 100% Urine (pH 6.42) vs CAMHB,1.18
same,Mean difference,[5]; 100% Urine (pH 6.42) vs CAMHB,0.14
same,N(%) ± 1 dilution,[5]; 100% Urine (pH 6.42) vs CAMHB,4 (66.7%)
same,N(%) ± 2 dilution,[5]; 100% Urine (pH 6.42) vs CAMHB,6 (100%)
same,Mean MIC,[5]; 100% Urine (pH 6.42),0.24 µg/mL
same,Mean Dilution Difference,[5]; 100% Urine (pH 7.31) vs CAMHB,1.54
same,Mean difference,[5]; 100% Urine (pH 7.31) vs CAMHB,0.21
same,N(%) ± 1 dilution,[5]; 100% Urine (pH 7.31) vs CAMHB,3 (50%)
same,N(%) ± 2 dilution,[5]; 100% Urine (pH 7.31) vs CAMHB,4 (66.7%)
same,Mean MIC,[5]; 100% Urine (pH 7.31),0.31 µg/mL
same,Mean Dilution Difference,[5]; 100% Urine (pH 8.07) vs CAMHB,1.36
same,Mean difference,[5]; 100% Urine (pH 8.07) vs CAMHB,0.17
same,N(%) ± 1 dilution,[5]; 100% Urine (pH 8.07) vs CAMHB,3 (50%)
same,N(%) ± 2 dilution,[5]; 100% Urine (pH 8.07) vs CAMHB,5 (83.3%)
same,Mean MIC,[5]; 100% Urine (pH 8.07),0.28 µg/mL
same,Mean MIC,"[5]; CAMHB (ref. method, pH 7.2)",0.11 µg/mL
same,MIC,"[5]; read-out: MICs, heading: MICs, methicillin-susceptible and methicillin-resistant isolates tested (conclusion)",≤ 0.5 µg/mL
same,MIC,"[5]; at least one strain of methicillin-susceptible or methicillin-resistant S. saprophyticus, read-out: MIC",≤ 0.5 µg/mL
same,MIC fold lower than levofloxacin,[5]; each of the methicillin-resistant S. saprophyticus,4 fold
same,mean dilution differences (range),[5]; gepotidacin in 100% urine (conclusion),1.18-1.54
same,MIC fold lower than levofloxacin,[5]; methicillin-susceptible S. saprophyticus,8-32 fold
